Data on eleven compounds can be found in patent publication US12083124B2 (Incyte Corporation, priority 2019, dated 2024).

Assay [1] addresses wild-type un-phosphorylated FGFR2 (Homo sapiens, UniProt P21802). In words: FGFR Enzymatic Assay (FRET peptide phosphorylation), FGFR2.
The target of assay [2] is wild-type un-phosphorylated FGFR4 (Homo sapiens, UniProt P22455). Put plainly: FGFR Enzymatic Assay (FRET peptide phosphorylation), FGFR4.
For assay [3], the target named is wild-type un-phosphorylated FGFR3 (Homo sapiens, UniProt P22607). Put plainly: FGFR Enzymatic Assay (FRET peptide phosphorylation), FGFR3.
For assay [4], the target named is wild-type un-phosphorylated FGFR1 (Homo sapiens, UniProt P11362). In words: FGFR Enzymatic Assay (FRET peptide phosphorylation), FGFR1. The conditions noted are these: pre-incubated for 4 hours.
Description: The inhibitor potency of the exemplified compounds was determined in an enzyme discontinuous assay that measures peptide phosphorylation using FRET measurements to detect product formation. Inhibitors were serially diluted in DMSO and a volume of 0.2 μL was transferred to the wells of a 384-well plate. […] Appropriate controls (enzyme blank and enzyme with no inhibitor) were included on the plate. […] The 10 μL/well reaction concentration of the peptide substrate was 500 nM whereas the ATP concentration was maintained near or below the ATP Km. The ATP Km values were pre-determined in a separate series of experiments. The reaction plate was incubated at 25° C. for 1 hr and the reactions were ended with the addition of 5 μL/well of quench solution (50 mM Tris, 150 mM NaCl, 0.5 mg/mL BSA, pH 7.8; 45 mM EDTA, 600 nM staurosporin, with Perkin Elmer Lance Reagents at 3.75 nM Eu-antibody PY20 and 180 nM APC-Streptavidin). The plate was allowed to equilibrate for ˜10 minutes at ambient temperature before scanning on a PheraStar plate reader (BMG Labtech) instrument.
Either GraphPad prism or XLfit was used to analyze the data. The IC50 values were derived by fitting the data to a four parameter logistic equation producing a sigmoidal dose-response curve with a variable Hill coefficient. Prism equation: Y=Bottom+(Top-Bottom)/(1+10^((Log IC50-X)*Hill slope)); XLfit equation: Y=(A+((B−A)/(1+((X/C)^D)))) where X is the logarithm of inhibitor concentration and Y is the response.
GraphPad prism3 was used to analyze the data. The IC50 values were derived by fitting the data to the equation for a sigmoidal dose-response with a variable slope. Y=Bottom+(Top-Bottom)/(1+10^((Log IC50-X)*Hill Slope)) where X is the logarithm of concentration and Y is the response.
The data in Table 1 was measured in wild-type un-phosphorylated FGFR1, FGFR2, FGFR3, and FGFR4 proteins.
The mark [5] stands for this setting: FGFR1, wild-type un-phosphorylated FGFR1.
Where [6] appears, read: read-out: FGFR1, wild-type un-phosphorylated FGFR1.
The mark [7] stands for this setting: read-out: FGFR4, wild-type un-phosphorylated FGFR4, pre-incubated for 4 hours.
Setting [8] is: read-out: FGFR2, wild-type un-phosphorylated FGFR2, pre-incubated for 4 hours.

Read-outs that look alike come from different tables or passages of the source. A value given as a limit tells only on which side of the number the result lay.

Sequence of wild-type un-phosphorylated FGFR1 (P11362 22-822): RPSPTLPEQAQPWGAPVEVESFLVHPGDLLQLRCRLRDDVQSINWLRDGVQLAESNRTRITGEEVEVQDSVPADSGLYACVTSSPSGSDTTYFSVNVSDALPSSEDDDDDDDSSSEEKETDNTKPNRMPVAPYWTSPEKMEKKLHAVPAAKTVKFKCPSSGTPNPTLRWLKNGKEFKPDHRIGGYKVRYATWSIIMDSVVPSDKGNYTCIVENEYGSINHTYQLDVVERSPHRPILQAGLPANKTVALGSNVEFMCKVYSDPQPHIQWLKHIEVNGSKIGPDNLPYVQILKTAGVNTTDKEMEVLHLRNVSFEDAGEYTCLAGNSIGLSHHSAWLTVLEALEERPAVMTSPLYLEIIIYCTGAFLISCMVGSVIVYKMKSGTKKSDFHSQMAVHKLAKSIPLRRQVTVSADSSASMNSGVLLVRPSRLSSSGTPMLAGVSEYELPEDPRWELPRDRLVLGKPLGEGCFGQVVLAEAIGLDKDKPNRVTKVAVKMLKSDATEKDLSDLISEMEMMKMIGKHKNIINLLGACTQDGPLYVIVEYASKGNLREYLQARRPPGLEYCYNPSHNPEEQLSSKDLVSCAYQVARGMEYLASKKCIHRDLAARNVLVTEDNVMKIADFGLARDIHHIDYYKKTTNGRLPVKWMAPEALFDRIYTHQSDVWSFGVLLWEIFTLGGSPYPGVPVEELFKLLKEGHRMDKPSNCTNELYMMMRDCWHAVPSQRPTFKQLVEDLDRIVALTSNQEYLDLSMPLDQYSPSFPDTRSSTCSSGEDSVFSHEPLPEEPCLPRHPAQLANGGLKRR
Sequence of wild-type un-phosphorylated FGFR2 (P21802 22-821): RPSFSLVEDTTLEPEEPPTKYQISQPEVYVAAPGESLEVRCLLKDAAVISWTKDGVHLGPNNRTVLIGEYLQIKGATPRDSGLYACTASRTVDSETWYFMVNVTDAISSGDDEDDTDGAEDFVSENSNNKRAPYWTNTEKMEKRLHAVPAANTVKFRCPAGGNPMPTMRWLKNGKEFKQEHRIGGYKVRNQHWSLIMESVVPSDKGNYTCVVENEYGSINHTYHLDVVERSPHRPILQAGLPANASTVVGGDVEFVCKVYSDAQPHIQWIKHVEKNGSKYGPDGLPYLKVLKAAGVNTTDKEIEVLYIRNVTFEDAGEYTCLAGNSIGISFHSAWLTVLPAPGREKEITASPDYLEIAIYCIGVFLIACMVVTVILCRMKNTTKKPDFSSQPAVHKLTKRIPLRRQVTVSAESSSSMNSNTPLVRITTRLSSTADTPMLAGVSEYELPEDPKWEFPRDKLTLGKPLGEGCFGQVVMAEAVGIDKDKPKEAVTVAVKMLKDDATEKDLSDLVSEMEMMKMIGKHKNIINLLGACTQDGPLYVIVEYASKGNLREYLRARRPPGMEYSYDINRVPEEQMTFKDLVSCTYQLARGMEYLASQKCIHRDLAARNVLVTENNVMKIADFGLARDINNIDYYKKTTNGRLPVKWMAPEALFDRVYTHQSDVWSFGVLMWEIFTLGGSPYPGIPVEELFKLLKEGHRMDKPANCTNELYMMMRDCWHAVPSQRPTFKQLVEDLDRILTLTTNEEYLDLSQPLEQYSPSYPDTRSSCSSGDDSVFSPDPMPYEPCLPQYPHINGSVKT
Sequence of wild-type un-phosphorylated FGFR3 (P22607 23-806): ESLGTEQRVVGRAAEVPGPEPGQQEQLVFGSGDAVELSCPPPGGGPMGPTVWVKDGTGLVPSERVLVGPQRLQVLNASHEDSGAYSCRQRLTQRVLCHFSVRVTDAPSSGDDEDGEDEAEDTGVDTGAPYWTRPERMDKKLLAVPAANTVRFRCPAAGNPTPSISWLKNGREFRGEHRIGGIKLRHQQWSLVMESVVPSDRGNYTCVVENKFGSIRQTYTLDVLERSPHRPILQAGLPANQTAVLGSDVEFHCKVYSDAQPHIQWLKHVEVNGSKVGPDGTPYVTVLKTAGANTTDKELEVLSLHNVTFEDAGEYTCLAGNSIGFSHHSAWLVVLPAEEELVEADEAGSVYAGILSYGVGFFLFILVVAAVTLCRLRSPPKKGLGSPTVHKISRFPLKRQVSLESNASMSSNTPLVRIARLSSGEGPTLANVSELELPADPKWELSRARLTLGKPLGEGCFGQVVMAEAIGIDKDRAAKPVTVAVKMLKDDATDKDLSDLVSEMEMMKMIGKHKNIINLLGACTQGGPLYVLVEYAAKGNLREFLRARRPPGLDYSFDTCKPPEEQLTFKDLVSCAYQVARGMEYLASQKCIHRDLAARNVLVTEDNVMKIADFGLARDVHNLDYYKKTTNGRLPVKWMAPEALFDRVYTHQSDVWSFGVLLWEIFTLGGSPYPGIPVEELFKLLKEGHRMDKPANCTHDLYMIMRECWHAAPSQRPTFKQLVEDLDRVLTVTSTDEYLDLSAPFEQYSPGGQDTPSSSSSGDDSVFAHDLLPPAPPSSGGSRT
Sequence of wild-type un-phosphorylated FGFR4 (P22455 22-802): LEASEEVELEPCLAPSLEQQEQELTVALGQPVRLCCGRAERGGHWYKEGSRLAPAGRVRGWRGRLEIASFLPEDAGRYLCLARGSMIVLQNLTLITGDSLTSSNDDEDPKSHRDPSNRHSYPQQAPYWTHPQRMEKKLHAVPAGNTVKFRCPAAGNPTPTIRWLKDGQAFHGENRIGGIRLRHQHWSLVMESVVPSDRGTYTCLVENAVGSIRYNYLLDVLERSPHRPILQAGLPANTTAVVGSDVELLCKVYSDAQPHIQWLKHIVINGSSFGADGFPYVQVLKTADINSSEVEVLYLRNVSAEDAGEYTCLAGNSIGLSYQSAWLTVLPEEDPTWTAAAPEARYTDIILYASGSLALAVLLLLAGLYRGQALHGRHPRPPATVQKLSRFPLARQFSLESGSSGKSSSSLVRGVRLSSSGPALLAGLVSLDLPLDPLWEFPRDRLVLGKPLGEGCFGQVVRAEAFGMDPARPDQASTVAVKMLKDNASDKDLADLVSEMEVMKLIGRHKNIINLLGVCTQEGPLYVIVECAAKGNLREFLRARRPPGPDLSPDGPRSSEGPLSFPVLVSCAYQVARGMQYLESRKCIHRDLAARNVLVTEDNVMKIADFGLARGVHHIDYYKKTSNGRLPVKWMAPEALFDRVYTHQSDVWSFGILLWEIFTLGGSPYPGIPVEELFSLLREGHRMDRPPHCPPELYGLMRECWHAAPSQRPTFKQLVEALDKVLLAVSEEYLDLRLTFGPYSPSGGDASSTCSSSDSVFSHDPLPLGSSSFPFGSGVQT

For `COc1cc2[nH]nc(-c3ccc(C4CCN(C(=O)[C@H](C)O)CC4)nc3)c2nc1-c1cccc(C)c1C` [Example 77, (S)-1-(4-(5-(5-(2,3-Dimethylphenyl)-6-methoxy-1H-pyrazolo[4,3-b]pyridin-3-yl)pyridin-2-yl)piperidin-1-yl)-2-hydroxypropan-1-one], the IC50 in assay [1] is less than 6 nM; in assay [2], more than 100 nM; in assay [3], less than 6 nM; in assay [4] (setting [5]) it was more than 100 nM.
Turning to `COc1cc2[nH]nc(-c3ccc(N4CCN(C)CC4)nc3)c2nc1-c1cccc(C)c1C` [Example 41, 5-(2,3-Dimethylphenyl)-6-methoxy-3-(6-(4-methylpiperazin-1-yl)pyridin-3-yl)-1H-pyrazolo[4,3-b]pyridine], the IC50 in assay [1] is less than 6 nM; in assay [2], 40 to 100 nM; in assay [3], less than 6 nM; in assay [4] (setting [5]), 40 to 100 nM.
In the case of `COc1cc2[nH]nc(-c3cnn(C4CN(C(=O)[C@H](C)O)C4)c3)c2nc1-c1cccc2c1CCC2` [Example 124, (S)-1-(3-(4-(5-(2,3-Dihydro-1H-inden-4-yl)-6-methoxy-1H-pyrazolo[4,3-b]pyridin-3-yl)-1H-pyrazol-1-yl)azetidin-1-yl)-2-hydroxypropan-1-one], the IC50 in assay [1] is less than 6 nM; in assay [2], 40 to 100 nM; in assay [3], less than 6 nM; in assay [4] (setting [6]), 6 to 40 nM.
Turning to `COc1cc2[nH]nc(-c3ccc(C(C)N4CCOCC4)nc3)c2nc1-c1cccc2c1CCC2` (centres unmarked) [Example 162, 4-(1-(5-(5-(2,3-Dihydro-1H-inden-4-yl)-6-methoxy-1H-pyrazolo[4,3-b]pyridin-3-yl)pyridin-2-yl)ethyl)morpholine], the IC50 in assay [1] is less than 6 nM; in assay [2], more than 100 nM; in assay [3] it was less than 6 nM; in assay [4] (setting [5]), 40 to 100 nM.
For `COc1cc2[nH]nc(-c3ccc(C4CC(N(C)C(=O)CCO)C4)nc3)c2nc1-c1cccc2c1CCC2` (centres unmarked) [Example 189, N-(3-(5-(5-(2,3-Dihydro-1H-inden-4-yl)-6-methoxy-1H-pyrazolo[4,3-b]pyridin-3-yl)pyridin-2-yl)cyclobutyl)-3-hydroxy-N-methylpropanamide], the IC50 in assay [1] is less than 6 nM; in assay [2] (setting [7]), 6 to 40 nM; in assay [3], less than 6 nM; in assay [4] (setting [6]), 6 to 40 nM.
Take `COc1cc2[nH]nc(-c3cnn([C@H]4CCN(C(=O)[C@H]5COCCN5C)C4)c3)c2nc1-c1cccc2c1CCC2` [Example 138, ((S)-3-(4-(5-(2,3-Dihydro-1H-inden-4-yl)-6-methoxy-1H-pyrazolo[4,3-b]pyridin-3-yl)-1H-pyrazol-1-yl)pyrrolidin-1-yl)((R)-4-methylmorpholin-3-yl)methanone]: the IC50 in assay [1] is less than 6 nM; in assay [2] it was 40 to 100 nM; in assay [3], less than 6 nM; in assay [4] (setting [6]), 6 to 40 nM.
For the compound `COc1cc2[nH]nc(-c3cnn(C4CN(C(=O)N(C)C)C4)c3)c2nc1-c1cccc2c1CCC2` [Example 24, 3-(4-(5-(2,3-Dihydro-1H-inden-4-yl)-6-methoxy-1H-pyrazolo[4,3-b]pyridin-3-yl)-1H-pyrazol-1-yl)-N,N-dimethylazetidine-1-carboxamide], the IC50 in assay [1] was less than 6 nM; in assay [2] (setting [7]), 6 to 40 nM; in assay [3] it was less than 6 nM; in assay [4] (setting [6]), 6 to 40 nM.
Turning to `COc1cc2[nH]nc(-c3cnn(C4CN(C(=O)[C@H]5C[C@](C)(O)C5)C4)c3)c2nc1-c1cccc2c1CCC2` [Example 135, (3-(4-(5-(2,3-Dihydro-1H-inden-4-yl)-6-methoxy-1H-pyrazolo[4,3-b]pyridin-3-yl)-1H-pyrazol-1-yl)azetidin-1-yl)((1r,3r)-3-hydroxy-3-methylcyclobutyl)methanone], the IC50 in assay [1] is less than 6 nM; in assay [2] (setting [7]), 6 to 40 nM; in assay [3] it was less than 6 nM; in assay [4] (setting [6]), 6 to 40 nM.
In the case of `COc1cc2[nH]nc(-c3ccc(C4CCN(C(=O)CO)C4)nc3)c2nc1-c1cccc2c1CCC2` (single isomer, unassigned) [Example 102, 1-(3-(5-(5-(2,3-Dihydro-1H-inden-4-yl)-6-methoxy-1H-pyrazolo[4,3-b]pyridin-3-yl)pyridin-2-yl)pyrrolidin-1-yl)-2-hydroxyethan-1-one], the IC50 in assay [1] (setting [8]) is less than 6 nM; in assay [2] (setting [7]), 6 to 40 nM; in assay [3] (read-out: FGFR3, wild-type un-phosphorylated FGFR3, pre-incubated for 4 hours), less than 6 nM; in assay [4] (setting [6]), 6 to 40 nM.
On to `COc1cc2[nH]nc(-c3ccc(N4CCN(C(C)C)CC4)cc3)c2nc1-c1cccc2c1CCC2` [Example 62, 5-(2,3-Dihydro-1H-inden-4-yl)-3-(4-(4-isopropylpiperazin-1-yl)phenyl)-6-methoxy-1H-pyrazolo[4,3-b]pyridine], for which the IC50 in assay [1] was less than 6 nM; in assay [2] it was more than 100 nM; in assay [3], less than 6 nM; in assay [4] (setting [6]) it was 6 to 40 nM.
For the compound `COc1cc2[nH]nc(-c3ccc(C4CC4)nc3)c2nc1-c1cccc2c1CC(O)C2` (centres unmarked) [Example 97, 4-(3-(6-Cyclopropylpyridin-3-yl)-6-methoxy-1H-pyrazolo[4,3-b]pyridin-5-yl)-2,3-dihydro-1H-inden-2-ol], the IC50 in assay [1] (setting [8]) is 6 to 40 nM; in assay [2] it was more than 100 nM; in assay [3] it was less than 6 nM; in assay [4] (setting [5]) it was 40 to 100 nM.
